Columns and labels:
MOR = MOR (Homo sapiens, UniProt P35372); assay: PDSP radioligand displacement binding; settings: average of three independent trials
Alpha1A = biological target: T1, Alpha1A (Homo sapiens, UniProt P35348); assay: PDSP radioligand displacement binding; settings: average of three independent trials
T1 sequence (P35348 1-466): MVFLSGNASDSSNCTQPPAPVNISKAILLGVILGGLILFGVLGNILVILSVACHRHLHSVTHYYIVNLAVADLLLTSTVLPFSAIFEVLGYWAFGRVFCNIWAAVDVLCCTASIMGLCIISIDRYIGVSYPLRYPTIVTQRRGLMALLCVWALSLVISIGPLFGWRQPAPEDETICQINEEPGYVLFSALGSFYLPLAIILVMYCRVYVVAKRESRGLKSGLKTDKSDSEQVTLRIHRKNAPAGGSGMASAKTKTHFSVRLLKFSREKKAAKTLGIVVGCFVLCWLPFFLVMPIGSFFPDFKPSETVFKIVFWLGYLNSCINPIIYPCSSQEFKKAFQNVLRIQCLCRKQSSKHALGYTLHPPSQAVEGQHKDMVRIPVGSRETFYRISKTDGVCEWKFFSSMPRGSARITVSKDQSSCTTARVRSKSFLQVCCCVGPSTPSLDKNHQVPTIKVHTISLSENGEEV

Alpha1D = biological target: T2, Alpha1D (Homo sapiens, UniProt P25100); assay: PDSP radioligand displacement binding; settings: average of three independent trials
T2 sequence (P25100 1-572): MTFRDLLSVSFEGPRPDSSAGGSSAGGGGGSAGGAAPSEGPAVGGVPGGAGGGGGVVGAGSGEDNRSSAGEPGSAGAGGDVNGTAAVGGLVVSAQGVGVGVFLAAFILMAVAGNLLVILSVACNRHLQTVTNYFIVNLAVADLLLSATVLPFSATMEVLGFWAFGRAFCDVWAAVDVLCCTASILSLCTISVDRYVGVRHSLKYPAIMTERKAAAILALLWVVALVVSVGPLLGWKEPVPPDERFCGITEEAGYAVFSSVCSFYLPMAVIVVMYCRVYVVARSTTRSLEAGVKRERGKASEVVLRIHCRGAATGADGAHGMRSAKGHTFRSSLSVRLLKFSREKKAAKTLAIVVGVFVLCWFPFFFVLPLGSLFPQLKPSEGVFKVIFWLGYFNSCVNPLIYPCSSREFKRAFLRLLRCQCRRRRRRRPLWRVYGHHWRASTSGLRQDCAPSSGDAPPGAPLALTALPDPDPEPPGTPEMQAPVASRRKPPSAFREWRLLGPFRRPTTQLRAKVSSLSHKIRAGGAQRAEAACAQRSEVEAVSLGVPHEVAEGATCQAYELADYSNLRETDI

Alpha7 = Alpha7 (Homo sapiens, UniProt P36544); assay: PDSP radioligand displacement binding; settings: average of three independent trials
Alpha1B = biological target: T3, Alpha1B (Homo sapiens, UniProt P35368); assay: PDSP radioligand displacement binding; settings: average of three independent trials
T3 sequence (P35368 1-520): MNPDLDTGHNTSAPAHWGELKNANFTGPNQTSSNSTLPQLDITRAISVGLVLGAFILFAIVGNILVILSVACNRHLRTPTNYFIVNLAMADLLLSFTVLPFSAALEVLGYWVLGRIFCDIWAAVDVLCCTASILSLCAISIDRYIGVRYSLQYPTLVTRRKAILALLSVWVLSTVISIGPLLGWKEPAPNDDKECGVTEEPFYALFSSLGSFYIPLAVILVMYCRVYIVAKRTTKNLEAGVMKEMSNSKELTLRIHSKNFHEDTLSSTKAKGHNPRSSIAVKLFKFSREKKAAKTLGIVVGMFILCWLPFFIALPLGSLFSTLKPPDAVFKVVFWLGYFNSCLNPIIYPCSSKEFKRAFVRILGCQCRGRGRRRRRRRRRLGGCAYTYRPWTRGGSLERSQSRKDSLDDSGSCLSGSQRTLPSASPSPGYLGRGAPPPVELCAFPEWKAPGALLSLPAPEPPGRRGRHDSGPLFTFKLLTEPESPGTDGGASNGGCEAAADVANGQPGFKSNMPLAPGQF

Alpha2A = biological target: T4, Alpha2A (Homo sapiens, UniProt P08913); assay: PDSP radioligand displacement binding; settings: average of three independent trials
T4 sequence (P08913 1-465): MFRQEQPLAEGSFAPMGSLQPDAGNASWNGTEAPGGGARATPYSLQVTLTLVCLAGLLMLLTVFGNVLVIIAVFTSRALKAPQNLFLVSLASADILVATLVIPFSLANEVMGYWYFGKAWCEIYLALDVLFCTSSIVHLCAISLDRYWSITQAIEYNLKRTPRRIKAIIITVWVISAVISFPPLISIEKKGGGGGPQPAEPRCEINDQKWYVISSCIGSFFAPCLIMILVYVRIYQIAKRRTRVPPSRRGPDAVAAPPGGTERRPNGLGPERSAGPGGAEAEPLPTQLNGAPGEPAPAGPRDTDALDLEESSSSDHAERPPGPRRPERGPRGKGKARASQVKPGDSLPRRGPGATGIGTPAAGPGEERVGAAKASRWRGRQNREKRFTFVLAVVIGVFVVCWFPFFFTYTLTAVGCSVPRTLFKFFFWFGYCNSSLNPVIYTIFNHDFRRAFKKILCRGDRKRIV

Sigma 2 = assay: PDSP radioligand displacement binding; settings: average of three independent trials
CXCR7 = CXCR7 (Homo sapiens, UniProt P25106); assay: CXCR7 agonism follow-up of the PRESTO-Tango screen; format: cell-based; settings: weak agonist compared to the CXCR7 agonist VUF11207
μOR = biological target: T5, μOR (Homo sapiens, UniProt P35372); assay: Competitive radioligand binding with [3H]DAMGO; settings: radioligand displacement assay
T5 construct: host or cells: CHO-K1

KOR = KOR (Homo sapiens, UniProt P41145); assay: PDSP radioligand displacement binding; settings: average of three independent trials
κOR [1] = biological target: T6, κOR (Homo sapiens, UniProt P41145); assay: Competitive radioligand binding with [3H]U69,593; settings: radioligand displacement assay
T6 construct: host or cells: CHO-K1

κOR [2] = biological target: T6, κOR; assay: cell-based; format: cell-based

SMILES | Ki (nM) at MOR (MOR) | Ki (Alpha1A) [nM] | Ki (nM) at Alpha1D (Alpha1D) | Ki (Alpha7) [nM] | Ki (Alpha1B) [nM] | Ki (Alpha2A) [nM] | Ki (Sigma 2) [nM] | concentration at which CXCR7 is activated (CXCR7) [µM] | Ki (μOR) [nM] | Ki (Alpha1D) [nM] | Ki (KOR) [nM] | Ki (κOR [1]) [nM] | κOR cAMP inhibition pEC50 ± SEM (κOR [2]) | EC50 (κOR [2]; read-out: κOR cAMP inhibition EC50) [nM]
C/C=C1/CN2CC[C@]34C(=C(C(=O)OC)[C@H]1C[C@H]23)Nc1ccc(Br)cc14 [Compound 2, 10-Bromoakuammicine] | — (“—” indicates compound produced less than 50% displacement of radioligand in primary binding screen at 10 μM.) | 1000 | — (“—” indicates compound produced less than 50% displacement of radioligand in primary binding screen at 10 μM.) | 7000 | 2880 | > 10000 | 2620 | – | – | – | – | – | – | –
C/C=C1/CN2CC[C@]34C(=C(C(=O)OC)[C@H]1C[C@H]23)Nc1ccc(I)cc14 [Compound 3, 10-Iodoakuammicine] | — (“—” indicates compound produced less than 50% displacement of radioligand in primary binding screen at 10 μM.) | 883 | – | 5490 | 2020 | 732 | 2220 | > 3 | 3600 | 1140 | 1 | 0.087 | 8.2 ± 0.1 | 5.7

Reference: patent publication US20250051332A1 (priority 2022, published 2025)
